Laboratory results taken from patent publication US20080167297A1, “Pyrimidine Derivatives for Use as Anticancer Agents” (ASTRAZENECA AB, priority 2005, published 2008).

System: murine fibroblasts (NIH3T3) over-expressing human IGF-1 receptor
Assay: Test (c): inhibition of IGF-stimulated cell proliferation (BrdU incorporation)
Type: cell-based
Settings: inhibition of IGF-stimulated proliferation in NIH3T3 over-expressing human IGF-1 receptor
Method: The construction of murine fibroblasts (NIH3T3) over-expressing human IGF-1 receptor has been described by Lammers et al (EMBO J, 8, 1369-1375, 1989). These cells show a proliferative response to IGF-I which can be measured by BrdU incorporation into newly synthesised DNA. Compound potency was determined as causing inhibition of the IGF-stimulated proliferation in the following assay:
Compounds are initially dissolved in DMSO to 10 mM, followed by dilutions in DMEM+1% FCS+glutamine to give a range from […] in 1-0.00045% DMSO final concentration in assay well.
Exponentially growing NIH3T3/IGFR cells were harvested and seeded in complete growth medium into a flat-bottomed 96 well tissue culture grade plate (Costar 3525) at 1.2×10^4 cells per well in a volume of 100 μl.
Growth medium was carefully removed from each well using a multi-channel pipette. Wells were carefully rinsed three times with 200 μl with HBSS. 100 μl of starvation medium was added to each well and the plate was re-incubated for 24 hours.
50 μl of a 4× concentrate of test compound was added to appropriate wells. Cells were incubated for 30 minutes with compound alone before the addition of IGF. For cells treated with IGF, an appropriate volume (i.e. 25 μl) of starvation medium was added to make a final volume per well up to 200 μl followed by 25 μl of IGF-1 at 160 ng/ml (to give a final concentration of 20 ng/ml). […] The plate was re-incubated for 20 hours.
The incorporation of BrdU in the cells (after a 4 h incorporation period) was assessed using the BrdU Cell Proliferation Elisa according to the manufacturer's protocol.

Q: `CCOc1nccnc1-c1cc([C@@H]2CCCN2c2nc(C)cc(Nc3cc(C)[nH]n3)n2)on1` [Example 1, S-2-[2-{3-(3-Ethoxypyrazin-2-yl)isoxazol-5-yl}pyrrolidin-1-yl]-6-methyl-4-(5-methyl-1H-pyrazol-3-ylamino)pyrimidine] was tested. Which IC50 did it give?
A: The IC50 was 0.04 µM.

Q: `Cc1cc(Nc2cc(C)[nH]n2)nc(N2CCC[C@H]2c2cc(-c3cccnc3C)no2)n1` [Example 3, S-2-[2-{3-(2-Methylpyrid-3-yl)isoxazol-5-yl}pyrrolidin-1-yl]-6-methyl-4-(5-methyl-1H-pyrazol-3-ylamino)pyrimidine] was tested. Which IC50 did it give?
A: Its IC50 is 0.006 µM.

Q: Which IC50 does the source give for `Cc1cc(Nc2cc(C)[nH]n2)nc(N2CCC[C@H]2c2cc(-c3cccnc3C#N)no2)n1` [Example 7, S-2-[2-{3-(2-Cyanopyrid-3-yl)isoxazol-5-yl}pyrrolidin-1-yl]-6-methyl-4-(5-methyl-1H-pyrazol-3-ylamino)pyrimidine] here?
A: Its IC50 is 0.004 µM.
